This note sets out measurements from US20260041770A1, “CELL MEMBRANE-ATTACHED HYALURONIC ACID-CD44 SPECIFIC BINDING REACTION POLYMER COMPOUND TO ENHANCE THE IMMUNE-ANTICANCER FUNCTION OF NATURAL KILLER CELLS” (DONGGUK UNIVERSITY INDUSTRY-ACADEMIC COOPERATION FOUNDATION, priority 2023, published 2026).

This test relates to NK92-mi NK cells. Nature of the test: NK cell surface modification efficiency (fluorescence intensity, cell coating efficacy). The format is cell-based. Particulars: polymer 1.0 mg/mL, 30 minutes at room temperature. As for the experimental part:
A polymer compound (HA-PEG-DSPE) was dissolved in MEM alpha at a concentration of 1.0 mg/mL, and 5×10^5 NK92-mi NK cells were evenly mixed with 100 μL of solution. The surface of NK cell was modified (HA-PEG-DSPE bound to NK cell) at room temperature for 30 minutes and then washed twice with MEM alpha. Cells were then lysed with 250 μL of RIPA buffer and stored at 4° C. for 30 minutes. Finally, 250 μL of distilled water was added, diluted, and transferred to 96-well to measure fluorescence intensity at 480/535 nm.

For PEG600, the “fluorescence intensity on NK cell” value was “fluorescence intensity is not substantially measured”.

As for PEG2000, the “cell coating efficacy of NK cell” value was “higher coating efficacy (cell coating efficacy, ng/10^5 cells) of NK cell compared to the polymer compound using PEG600 and PEG5000”; the “fluorescence intensity on NK cell” value is “strong fluorescence intensity is measured on the surface of NK cell”.
